Target: T1, Kv7.2 (Homo sapiens, UniProt O43526)
T1 construct: expressed in transfected cells
Assay: Activation of Kv7.2 (in vitro assay, concentration response curve)
Assay type: cell-based
Settings: for Emax: Kv7.2 activation max %; for EC50: activation of Kv7.2
Description: The term “EC50” in this application is defined as: the agonistic effect of a compound can be determined by testing the compound in an in vitro assay as described herein, whereby the effect of the compound is measured across a range of compound concentrations. The resulting data is plotted as a concentration response curve, which typically follows a sigmoidal function, whereby the concentration of the compound is plotted on the x axis and the response (agonistic effect) is plotted on the y axis. The term “EC50” is the “half maximal effective concentration” and denotes the concentration of a particular compound required to obtain 50% of the maximum response (Emax) which is observed for that compound in the given in vitro assay.

Compound | Emax | EC50
O=C(NCc1ccnc(OC(F)F)c1)N[C@@H]1C[C@H]2CC[C@@H]1C2 (racemic) [Example 12, 1-[[2-(difluoromethoxy)pyridin-4-yl]methyl]-3-[rac-(1R,2R,4S)-2-bicyclo[2.2.1]heptanyl]urea] | 81% | 90 nM
COc1cc(CNC(=O)N[C@@H]2C[C@H]3CC[C@@H]2C3)ccn1 (racemic) [Example 14, 1-[(2-methoxypyridin-4-yl)methyl]-3-[rac-(1R,2R,4S)-2-bicyclo[2.2.1]heptanyl]urea] | 86% | 1840 nM
O=C(NCc1ccnc(Br)c1)N[C@H]1C[C@@H]2CC[C@H]1C2 (racemic) [Example 27, 1-[(2-bromopyridin-4-yl)methyl]-3-[rac-(1R,2R,4S)-2-bicyclo[2.2.1]heptanyl]urea] | 76% | 2690 nM
O=C(NCc1ccnc(-c2cnco2)c1)N[C@H]1C[C@@H]2CC[C@H]1C2 (racemic) [Example 28, 1-[[2-(1,3-oxazol-5-yl)pyridin-4-yl]methyl]-3-[rac-(1R,2R,4S)-2-bicyclo[2.2.1]heptanyl]urea] | 76% | 8280 nM
N#Cc1cc(CNC(=O)N[C@H]2C[C@@H]3CC[C@H]2C3)ccn1 (racemic) [Example 34, 1-[(2-cyanopyridin-4-yl)methyl]-3-[rac-(1R,2R,4S)-2-bicyclo[2.2.1]heptanyl]urea] | 49% | 2770 nM
O=C(NCc1ccnc(C(F)F)c1)N[C@H]1C[C@@H]2CC[C@H]1C2 (racemic) [Example 35, 1-[[2-(difluoromethyl)pyridin-4-yl]methyl]-3-[rac-(1R,2R,4S)-2-bicyclo[2.2.1]heptanyl]urea] | 67% | 1140 nM
O=C(NCc1ccnc(OC(F)F)c1)NC1CC2C(C1)C2(F)F (racemic) [Example 74, 1-[[2-(difluoromethoxy)pyridin-4-yl]methyl]-3-[rac-(1R,5S)-6,6-difluoro-3-bicyclo[3.1.0]hexanyl]urea] | 58% | 170 nM
O=C(NCc1ccnc(OC(F)F)c1)N[C@@H]1C[C@H]2CC[C@@H]1O2 (racemic) [Example 102, 1-[[2-(difluoromethoxy)pyridin-4-yl]methyl]-3-[rac-(1R,2S,4S)-7-oxabicyclo[2.2.1]heptan-2-yl]urea] | 71% | 5860 nM
O=C(NCc1ccnc(OC(F)F)c1)N[C@H]1[C@@H](O)[C@H]2CCC[C@H]21 (racemic) [Example 111, 1-[[2-(difluoromethoxy)pyridin-4-yl]methyl]-3-[rac-(1R,5S,6S,7R)-7-hydroxy-6-bicyclo[3.2.0]heptanyl]urea] | 63% | 2780 nM
O=C(NCc1ccnc(OC(F)F)c1)N[C@H]1C[C@H]2CCC[C@@]2(CO)C1 (racemic) [Example 112, 1-[[2-(difluoromethoxy)pyridin-4-yl]methyl]-3-[rac-(2R,3aS,6aS)-6a-(hydroxymethyl)-2,3,3a,4,5,6-hexahydro-1H-pentalen-2-yl]urea] | 49% | 4910 nM
O=C(NCc1ccnc(OC(F)F)c1)NC[C@@]12CCC[C@@H]1CCO2 (racemic) [Example 120, 1-[[2-(difluoromethoxy)pyridin-4-yl]methyl]-3-[[rac-(3aR,6aR)-2,3,3a,4,5,6-hexahydrocyclopenta[b]furan-6a-yl]methyl]urea] | 53% | 3450 nM
O=C1CC2CCC(C1)C2NC(=O)NCc1ccnc(OC(F)F)c1 (racemic) [Example 139, 1-[[2-(difluoromethoxy)pyridin-4-yl]methyl]-3-[rac-(1R,5S)-3-oxo-8-bicyclo[3.2.1]octanyl]urea] | 61% | 5250 nM
C[C@]1(O)CCCC[C@@H]1NC(=O)NCc1ccnc(OC(F)F)c1 (racemic) [Example 148, 1-[[2-(difluoromethoxy)pyridin-4-yl]methyl]-3-[rac-(1R,2R)-2-hydroxy-2-methylcyclohexyl]urea] | 64% | 5070 nM
O=C(NCc1ccnc(OC(F)F)c1)N[C@@H]1[C@H]2CCC(F)(F)[C@H]21 (racemic) [Example 172, 1-[[2-(difluoromethoxy)pyridin-4-yl]methyl]-3-[rac-(1R,5S,6R)-2,2-difluoro-6-bicyclo[3.1.0]hexanyl]urea] | 66% | 460 nM

Next, values leading:

Emax | EC50 | Compound
101% | 590 nM | O=C(NCc1ccnc(-n2cccn2)c1)N[C@@H]1C[C@H]2CC[C@@H]1C2 (racemic) [Example 7, 1-[(2-pyrazol-1-ylpyridin-4-yl)methyl]-3-[rac-(1R,2R,4S)-2-bicyclo[2.2.1]heptanyl]urea]
65% | 380 nM | O=C(NCc1ccnc(-n2cnc(C(F)(F)F)c2)c1)N[C@H]1C[C@@H]2CC[C@H]1C2 (racemic) [Example 26, 1-[rac-(1R,2R,4S)-2-bicyclo[2.2.1]heptanyl]-3-[[2-[4-(trifluoromethyl)imidazol-1-yl]pyridin-4-yl]methyl]urea]
80% | 260 nM | CC(F)(F)c1cc(CNC(=O)N[C@H]2C[C@@H]3CC[C@H]2C3)ccn1 (racemic) [Example 33, 1-[[2-(1,1-difluoroethyl)pyridin-4-yl]methyl]-3-[rac-(1R,2R,4S)-2-bicyclo[2.2.1]heptanyl]urea]
64% | 540 nM | O=C(NCc1ccnc(C(F)(F)F)c1)N[C@H]1C[C@@H]2CC[C@H]1C2 (racemic) [Example 36, 1-[rac-(1R,2R,4S)-2-bicyclo[2.2.1]heptanyl]-3-[[2-(trifluoromethyl)pyridin-4-yl]methyl]urea]
65% | 110 nM | O=C(NCc1ccnc(OC(F)F)c1)N[C@@H]1CC[C@H](C(F)(F)F)C1 (racemic) [Example 59, 1-[[2-(difluoromethoxy)pyridin-4-yl]methyl]-3-[rac-(1R,3S)-3-(trifluoromethyl)cyclopentyl]urea]
49% | 250 nM | O=C(NCc1ccnc(OC(F)F)c1)NC1CCC2C1C2(F)F (racemic) [Example 73, 1-[[2-(difluoromethoxy)pyridin-4-yl]methyl]-3-[rac-(1R,5R)-6,6-difluoro-2-bicyclo[3.1.0]hexanyl]urea]
55% | 100 nM | O=C(NCc1ccnc(OCC(F)(F)F)c1)N[C@H]1CC[C@@H](C(F)(F)F)C1 (racemic) [Example 79, 1-[rac-(1R,3S)-3-(trifluoromethyl)cyclopentyl]-3-[[2-(2,2,2-trifluoroethoxy)pyridin-4-yl]methyl]urea]
73% | 1360 nM | CC1(C)C[C@H](NC(=O)NCc2ccnc(OC(F)F)c2)[C@@H]1O (racemic) [Example 81, 1-[[2-(difluoromethoxy)pyridin-4-yl]methyl]-3-[rac-(1R,2S)-2-hydroxy-3,3-dimethylcyclobutyl]urea]
44% | 6510 nM | CC1(C)C[C@H](NC(=O)NCc2ccnc(-n3cnc(C(F)(F)F)c3)c2)[C@@H]1O (racemic) [Example 99, 1-[rac-(1R,2S)-2-hydroxy-3,3-dimethylcyclobutyl]-3-[[2-[4-(trifluoromethyl)imidazol-1-yl]pyridin-4-yl]methyl]urea]
72% | 1200 nM | CC1(C)CC[C@H](O)[C@@H](NC(=O)NCc2ccnc(OC(F)F)c2)C1 (racemic) [Example 101, 1-[[2-(difluoromethoxy)pyridin-4-yl]methyl]-3-[rac-(1R,2R)-2-hydroxy-5,5-dimethylcyclohexyl]urea]
95% | 1700 nM | O=C(NCc1ccnc(OC(F)F)c1)N[C@H]1C[C@@H]2C[C@H]1[C@H](O)C2 (racemic) [Example 107, 1-[[2-(difluoromethoxy)pyridin-4-yl]methyl]-3-[rac-(1R,2S,4S,6R)-6-hydroxy-2-bicyclo[2.2.1]heptanyl]urea]
63% | 7870 nM | O=C(NCc1ccnc(OC(F)F)c1)N[C@H]1CCC[C@H]1O (racemic) [Example 118, 1-[[2-(difluoromethoxy)pyridin-4-yl]methyl]-3-[rac-(1R,2S)-2-hydroxycyclopentyl]urea]
40% | 4160 nM | O=C(NCc1ccnc(OC(F)F)c1)N[C@@H]1CC[C@@H]1F (racemic) [Example 123, 1-[[2-(difluoromethoxy)pyridin-4-yl]methyl]-3-[rac-(1R,2S)-2-fluorocyclobutyl]urea]
40% | 100 nM | O=C(NCc1ccnc(OC(F)F)c1)N[C@@H]1CCC[C@H](C(F)(F)F)C1 (racemic) [Example 138, 1-[[2-(difluoromethoxy)pyridin-4-yl]methyl]-3-[rac-(1R,3S)-3-(trifluoromethyl)cyclohexyl]urea]
60% | 2130 nM | O=C(NCc1ccnc(OC(F)F)c1)N[C@@H]1CCC(F)(F)C[C@H]1O (racemic) [Example 154, 1-[[2-(difluoromethoxy)pyridin-4-yl]methyl]-3-[rac-(1R,2R)-4,4-difluoro-2-hydroxycyclohexyl]urea]
94% | 250 nM | O=C(NCc1ccnc(OC(F)F)c1)NC1C[C@H]2C[C@@H]1CC2(F)F (mixture of isomers) [Example 165, 1-[[2-(difluoromethoxy)pyridin-4-yl]methyl]-3-[rac-(1R,4R)-5,5-difluoro-2-bicyclo[2.2.1]heptanyl]urea]
62% | 890 nM | O=C(NCc1ccnc(OCF)c1)N[C@@H]1[C@H]2CCC(F)(F)[C@H]21 (racemic) [Example 176, 1-[[2-(fluoromethoxy)pyridin-4-yl]methyl]-3-[rac-(1R,5S,6R)-2,2-difluoro-6-bicyclo[3.1.0]hexanyl]urea]

— patent publication US20250074901A1, “NOVEL HETEROARYL COMPOUNDS” (ICAGEN, LLC, priority 2021, published 2025)
